Among the data in PubChem BioAssay AID200 (DTP/NCI, 2004) are T/C values, retold here.

Structures are written as SMILES. “And” between values parts separate entries of the source, which are not always exact repeats. Equal values may be shown once. Inconclusive results and toxic doses are left out.

This assay deals with B6C3F1 mice, B16 melanoma ip, median survival T/C. Nature of the assay: NCI In Vivo Anticancer Drug Screen. Data for tumor model B16 Melanoma (intraperitoneal) in B6C3F1 mice. The conditions noted are these: endpoint: median survival time, higher = longer survival. The procedure: The antitumor activity of compounds was measured in mice bearing transplantable tumors. Survival or tumor size were measured and the results are expressed as the measurement made in the treated group (T) divided by the measurement made in the vehicle treated control group (C). The tumor model used in this assay is B16 Melanoma (intraperitoneal) in B6C3F1 mice

Setting [1] is: dose: 25.0 mg/kg/injection, schedule: Q01DX009 (ip), vehicle: saline.
[2] abbreviates: dose: 50.0 mg/kg/injection, schedule: Q01DX009 (ip), vehicle: saline.
Setting [3] is: dose: 100.0 mg/kg/injection, schedule: Q01DX009 (ip), vehicle: saline.
Setting [4] is: dose: 25.0 mg/kg/injection, schedule: Q01DX009 (ip), vehicle: Klucel (hydroxypropylcellulose) (HPC).
Where [5] appears, read: dose: 50.0 mg/kg/injection, schedule: Q01DX009 (ip), vehicle: Klucel (hydroxypropylcellulose) (HPC).
[6] abbreviates: dose: 100.0 mg/kg/injection, schedule: Q01DX009 (ip), vehicle: Klucel (hydroxypropylcellulose) (HPC).
The mark [7] stands for this setting: dose: 200.0 mg/kg/injection, schedule: Q01DX009 (ip), vehicle: saline.
[8] abbreviates: dose: 400.0 mg/kg/injection, schedule: Q01DX009 (ip), vehicle: saline.
The mark [9] stands for this setting: dose: 25.0 mg/kg/injection, schedule: Q01DX009 (ip), vehicle: saline with Tween-80.
Setting [10] is: dose: 100.0 mg/kg/injection, schedule: Q01DX009 (ip), vehicle: saline with Tween-80.
Setting [11] is: dose: 200.0 mg/kg/injection, schedule: Q01DX009 (ip), vehicle: saline with Tween-80.

As for `CCCCCCCCCCCCCCCCC(C(=O)O)C(O)(CC(=O)O)C(=O)O` (configuration not stated), the T/C was 95 % of control (dose: 8.75 mg/kg/injection, schedule: Q01DX009 (ip), vehicle: Klucel (hydroxypropylcellulose) (HPC)); 91 % of control (dose: 17.5 mg/kg/injection, schedule: Q01DX009 (ip), vehicle: Klucel (hydroxypropylcellulose) (HPC)); 100 % of control (dose: 35.0 mg/kg/injection, schedule: Q01DX009 (ip), vehicle: Klucel (hydroxypropylcellulose) (HPC)); 93 % of control (dose: 70.0 mg/kg/injection, schedule: Q01DX009 (ip), vehicle: Klucel (hydroxypropylcellulose) (HPC)).

Turning to `Clc1ncnc2c1ncn2C1CCCO1` (configuration not stated), the T/C is 93 % of control under setting [1]; 99 % of control under setting [2]; 88 % of control and 94 % of control under setting [3].

Turning to `C=C1C(=O)C2=CC1CCC(=O)C1(C)CCC(OC(C)=O)C(C)(C)C1CC2O` (configuration not stated), the T/C is 96 % of control (dose: 1.88 mg/kg/injection, schedule: Q01DX009 (ip), vehicle: Klucel (hydroxypropylcellulose) (HPC)); 104 % of control and 106 % of control (dose: 3.75 mg/kg/injection, schedule: Q01DX009 (ip), vehicle: Klucel (hydroxypropylcellulose) (HPC)); 111 % of control and 89 % of control (dose: 7.5 mg/kg/injection, schedule: Q01DX009 (ip), vehicle: Klucel (hydroxypropylcellulose) (HPC)); 114 % of control and 100 % of control (dose: 15.0 mg/kg/injection, schedule: Q01DX009 (ip), vehicle: Klucel (hydroxypropylcellulose) (HPC)); 118 % of control and 104 % of control (dose: 30.0 mg/kg/injection, schedule: Q01DX009 (ip), vehicle: Klucel (hydroxypropylcellulose) (HPC)).

With `CC1=CC(=O)C(O)C2(C)C1CC1OC(=O)C(OC(=O)CC(C)(C)O)C3C(C)C(O)C4(O)OCC13C42` (configuration not stated), the T/C was 108 % of control (dose: 0.25 mg/kg/injection, schedule: Q01DX009 (ip), vehicle: saline + alcohol); 116 % of control (dose: 0.5 mg/kg/injection, schedule: Q01DX009 (ip), vehicle: saline + alcohol); 110 % of control (dose: 1.0 mg/kg/injection, schedule: Q01DX009 (ip), vehicle: saline + alcohol); 116 % of control (dose: 2.0 mg/kg/injection, schedule: Q01DX009 (ip), vehicle: saline + alcohol); 120 % of control (dose: 4.0 mg/kg/injection, schedule: Q01DX009 (ip), vehicle: saline + alcohol).

Regarding `c1ccc(CN2COc3c(ccc4c3OCN(Cc3ccccc3)C4)C2)cc1`, the T/C under setting [4] was 111 % of control, the T/C under setting [5] is 96 % of control and the T/C under setting [6] was 95 % of control.

Regarding `Cc1cc(NCCCCCCNc2cc(C)nc3cc(N(C)C)ccc23)c2ccc(N(C)C)cc2n1`, the T/C by setting is: (dose: 3.13 mg/kg/injection, schedule: Q01DX009 (ip), vehicle: distilled water + Tween-80 + alcohol) 100 % of control; (dose: 6.25 mg/kg/injection, schedule: Q01DX009 (ip), vehicle: distilled water + Tween-80 + alcohol) 112 % of control; (dose: 12.5 mg/kg/injection, schedule: Q01DX009 (ip), vehicle: distilled water + Tween-80 + alcohol) 112 % of control and 122 % of control.

With `COc1cccc2c1C(=O)c1c(O)c3c(c(O)c1C2=O)C[C@@](O)(c1csc(N)n1)C[C@@H]3OC1CC(N)C(O)C(C)O1` (some centres not stated), the T/C (dose: 25.0 mg/kg/injection, schedule: Q01DX001 (ip), vehicle: water) was 154 % of control.

With `O=C1C=CN(C2OC(CO)C(O)C2O)C(=O)C1` (configuration not stated), the T/C was 97 % of control under setting [1]; 108 % of control under setting [2]; 102 % of control under setting [3]; 105 % of control under setting [7]; 115 % of control under setting [8].

Take `CCCCC(NC(=O)CN)C(=O)O` (configuration not stated): the T/C runs as follows: under setting [6], 103 % of control; (dose: 200.0 mg/kg/injection, schedule: Q01DX009 (ip), vehicle: Klucel (hydroxypropylcellulose) (HPC)) 107 % of control; (dose: 400.0 mg/kg/injection, schedule: Q01DX009 (ip), vehicle: Klucel (hydroxypropylcellulose) (HPC)) 122 % of control.

In the case of `Cc1nnc2ncccn12`, the T/C by setting is: (dose: 12.5 mg/kg/injection, schedule: Q01DX009 (ip), vehicle: saline) 97 % of control and 106 % of control; under setting [1], 96 % of control and 103 % of control; under setting [2], 98 % of control and 100 % of control; under setting [3], 97 % of control and 103 % of control; under setting [7], 94 % of control and 97 % of control; under setting [8], 90 % of control and 102 % of control.

`C[C@H](CCC[C@H](C)OS(=O)(=O)c1ccccc1)OS(=O)(=O)c1ccccc1`: the T/C runs as follows: (dose: 12.5 mg/kg/injection, schedule: Q01DX009 (ip), vehicle: saline with Tween-80) 122 % of control and 101 % of control; under setting [9], 207 % of control and 97 % of control; (dose: 400.0 mg/kg/injection, schedule: Q01DX009 (ip), vehicle: saline with Tween-80) 194 % of control.

Consider `O=c1cc(-c2ccccc2)[nH]c2c1CCCC2`, for which the T/C by setting is: under setting [10], 109 % of control; under setting [11], 117 % of control.

As for `O=C1O/C(=C2\OCc3ccccc32)c2ccccc21`, the T/C by setting is: under setting [9], 115 % of control; (dose: 50.0 mg/kg/injection, schedule: Q01DX009 (ip), vehicle: saline with Tween-80) 119 % of control; under setting [10], 96 % of control; under setting [11], 102 % of control.

On to `COC1=C(NC(C)=O)C(=O)c2nc(-c3nc(C(=O)O)c(C)c(-c4ccc(OC)c(OC)c4O)c3N)ccc2C1=O`, for which the T/C is, setting by setting: (dose: 6.25 mg/kg/injection, schedule: Q01DX009 (ip), vehicle: Klucel (hydroxypropylcellulose) (HPC)) 103 % of control; (dose: 12.5 mg/kg/injection, schedule: Q01DX009 (ip), vehicle: Klucel (hydroxypropylcellulose) (HPC)) 95 % of control; under setting [4], 86 % of control; under setting [5], 97 % of control.

With `O=c1nc(Oc2ccccc2)nc2ncccn12`, the T/C (dose: 3.12 mg/kg/injection, schedule: Q01DX009 (ip), vehicle: saline with Tween-80) is 108 % of control and 101 % of control and 102 % of control.
